Series [1] is described as follows: LD50 in mice on oral administration (toxicity). Particulars: mouse, in vivo.
The nature of series [2]: anticonvulsant properties (no test described). Particulars: in words.
The nature of the next series: diuretic activity. The note with it: in words.
The next series is described as follows: antidepressant activity. Particulars: in words.
A further series is described as follows: anticholinergic activity. The note with it: in words.
The next series in a line: antitussive activity. The note with it: in words.
The next series in a line: anti-Parkinson activity. Particulars: in words.

These results are taken from patent US4003915A, “Tricyclic imines” (Hoffmann-La Roche Inc., priority 1970, dated 1977).

The LD50 is the dose at which mortality reaches 50%. High values mean a less toxic substance, low ones a more toxic substance. The compound `CN(C)CCN=C1c2ccccc2CCc2c(Br)cccc21` [1-bromo-N-(2-dimethylamino-ethyl)-10,11-dihydro-5H-dibenzo[a,d]cyclohepten-5-imine] returned an LD50 in series [1] of about 750 mg/kg. In series [2], the anticonvulsant properties result is reported as “strong”.

Regarding `CCN(CC)CCN=C1c2ccccc2CCc2c(Cl)cccc21` [1-chloro-N-(2-diethylamino-ethyl)-10,11-dihydro-5H-dibenzo[a,d]cyclohepten-5-imine], the diuretic activity result in “diuretic activity” is “strong”.

`CN(C)CCN=C1c2ccccc2CCc2c(Cl)cccc21` [1-chloro-N-(2-dimethylamino-ethyl)-10,11-dihydro-5H-dibenzo[a,d]cyclohepten-5-imine] yielded a median lethal dose (LD50) in series [1] of about 750 mg/kg. Besides, the antidepressant activity entry in “antidepressant activity” is listed as “acts principally as an antidepressant”. Further, the anticholinergic activity entry in the series “anticholinergic activity” is on record as “very weak”.

As to `CCN(CC)CCN=C1c2ccccc2CCc2ccc(Cl)cc21` [3-chloro-N-(2-diethylamino-ethyl)-10,11-dihydro-5H-dibenzo[a,d]cyclohepten-5-imine], the antitussive activity result in “antitussive activity” is recorded as “strong”.

Regarding `CN(C)CCN=C1c2ccccc2CCc2ccc(Cl)cc21` [3-chloro-N-(2-dimethylamino-ethyl)-10,11-dihydro5H-dibenzo[a,d]cyclohepten-5-imine], the antidepressant activity entry in “antidepressant activity” was “strong”. For the same compound, the anticholinergic activity result in “anticholinergic activity” is “strong”. In addition, the “activity against Parkinsonism” value in “anti-Parkinson activity” is given as “very active”.

`CN(C)CCN=C1c2ccccc2CCc2ccccc21` [N-(2-dimethylamino-ethyl)-10,11-dihydro-5H-dibenzo[a,d]cyclohepten-5-imine]: the “central and peripheral anticholinergic activity” value in “anticholinergic activity” (central and peripheral) is listed as “strong”. Besides, in the series “anti-Parkinson activity”, the “activity against Parkinsonism” value is “very active”.
